Measurements: ChEMBL document CHEMBL5331089, “Mucormycosis: A hidden mystery of fungal infection, possible diagnosis, treatment and development of new therapeutic agents” (Eur J Med Chem, 2023)
In brackets after ≈: the same amount, converted by molar mass.

Legend:
[1] = system: Syncephalastrum racemosum; test: Antifungal activity against Syncephalastrum racemosum RCMB 016001 assessed as zone of inhibition measured after 24 hrs; format: functional
Absidia glauca = test: Antifungal activity against Absidia glauca SZMC 11072 assessed as fungal growth inhibition; format: functional
Lichtheimia corymbifera = test: Antifungal activity against Absidia corymbifera SZMC 2010 assessed as fungal growth inhibition measured after 48 hrs by microtitre plate reader assay; format: functional
[2] = Antifungal activity against Rhizopus microsporus NRRL 514 assessed as fungal growth inhibition measured after 48 hrs by microtitre plate reader assay; format: functional
Rhizomucor pusillus [3] = test: Antifungal activity against Rhizomucor pusillus CN(M)231 assessed as fungal growth inhibition measured after 48 hrs by microtitre plate reader assay; format: functional
Rhizomucor pusillus [4] = test: Antifungal activity against Rhizomucor pusillus ETH M4920 assessed as fungal growth inhibition; format: functional
Rhizomucor pusillus [5] = test: Antifungal activity against Rhizomucor pusillus clinical isolate assessed as fungal growth inhibition measured after 48 hrs by microtitre plate reader analysis; format: functional
[6] = system: Syncephalastrum racemosum; test: Antifungal activity against Syncephalastrum racemosum SZMC 2011 assessed as fungal growth inhibition measured after 48 hrs by microtitre plate reader assay; format: functional
Mucor racemosus = test: Antifungal activity against Mucor racemosus WRL CN(M)304 assessed as fungal growth inhibition; format: functional
Mucor mucedo = test: Antifungal activity against Mucor mucedo WRL CN(M) assessed as fungal growth inhibition; format: functional
Rhizopus arrhizus [7] = test: Antifungal activity against Rhizopus oryzae CBS 109939 assessed as fungal growth inhibition by checkerboard broth microdilution assay; format: functional
Rhizopus arrhizus [8] = test: Antifungal activity against Rhizopus oryzae clinical isolate assessed as fungal growth inhibition measured after 24 to 72 hrs by microtitre plate reader analysis; format: functional; settings: time 24-72 hrs
Rhizomucor miehei [9] = test: Antifungal activity against Rhizomucor miehei CBS 360.92 assessed as fungal growth inhibition; format: functional
Rhizopus arrhizus [10] = test: Antifungal activity against Rhizopus oryzae CBS 146.90 assessed as fungal growth inhibition; format: functional
Rhizopus arrhizus [11] = test: Antifungal activity against Rhizopus oryzae clinical isolate assessed as fungal growth inhibition by checkerboard broth microdilution assay; format: functional
Mucor circinelloides [12] = test: Antifungal activity against Mucor circinelloides MS 12 assessed as fungal growth inhibition; format: functional
Rhizopus arrhizus [13] = test: Antifungal activity against Rhizopus oryzae CBS 112.07 assessed as fungal growth inhibition measured after 48 hrs by microtitre plate reader assay; format: functional
Rhizomucor miehei [14] = test: Antifungal activity against Rhizomucor miehei CBS 360.92 assessed as fungal growth inhibition measured after 48 hrs by microtitre plate reader assay; format: functional
Rhizopus arrhizus [15] = test: Antifungal activity against Rhizopus arrhizus assessed as fungal growth inhibition; format: functional
Mucor circinelloides [16] = test: Antifungal activity against Mucor circinelloides assessed as fungal growth inhibition at 100 ug/ml measured after 24 hrs by microtiter plate assay relative to control; format: functional
Phycomyces blakesleeanus = test: Antifungal activity against Phycomyces blakesleeanus assessed as fungal growth inhibition at 6.26 ug/ml measured after 24 hrs by microtiter plate assay relative to control; format: functional
Rhizopus arrhizus [17] = test: Antifungal activity against Rhizopus oryzae assessed as fungal growth inhibition at 12.5 ug/ml measured after 24 hrs by microtiter plate assay relative to control; format: functional
[18] = system: Syncephalastrum racemosum; test: Antifungal activity against Syncephalastrum racemosum assessed as fungal growth inhibition measured for 24 to 24 hrs by agar well diffusion assay; format: functional, organism-based
Mucor circinelloides [19] = test: Antifungal activity against Mucor circinelloides assessed as fungal growth inhibition measured at 36 to 48 hrs; format: functional; settings: time 36-48 hrs
Rhizomucor pusillus [20] = test: Antifungal activity against Rhizomucor pusillus assessed as fungal growth inhibition measured at 36 to 48 hrs; format: functional; settings: time 36-48 hrs
[21] = system: Syncephalastrum racemosum; test: Antifungal activity against Syncephalastrum racemosum SZMC 2011 assessed as fungal growth inhibition measured after 24 hrs by microtitre plate reader assay; format: functional
Rhizopus stolonifer = test: Antifungal activity against Rhizopus stolonifer SZMC 11101 assessed as fungal growth inhibition measured after 24 hrs by microtitre plate reader assay; format: functional
Mucor circinelloides [22] = test: Antifungal activity against Mucor circinelloides MS 12 assessed as fungal growth inhibition measured after 48 hrs by plate reader assay; format: functional
Mycotypha africana = test: Antifungal activity against Mycotypha africana NRRL 2978 assessed as fungal growth inhibition measured after 24 hrs by microtitre plate reader assay; format: functional
Rhizopus arrhizus [23] = test: Antifungal activity against Rhizopus oryzae clinical isolate RO-969 assessed as fungal growth inhibition measured after 24 hrs; format: functional
Rhizopus arrhizus [24] = test: Antifungal activity against Rhizopus oryzae clinical isolate RO-449 assessed as fungal growth inhibition measured after 24 hrs; format: functional
Rhizopus arrhizus [25] = test: Antifungal activity against Rhizopus oryzae clinical isolate RO-275 assessed as fungal growth inhibition measured after 24 hrs; format: functional

With `O=C1NC(=O)[C@]2(S1)C1CCCN1[C@@]1(C(=O)Nc3ccccc31)[C@H]2c1ccccc1` (some centres undefined) the “inhibition zone (IZ)” value [1] was 14 mm.
In the case of `CC(C)n1c(/C=C/[C@H](O)C[C@H](O)CC(=O)O)c(-c2ccc(F)cc2)c2ccccc21`, the MIC (Absidia glauca) is reported as 6.25 µg/mL (≈ 15.2 µM), the MIC90 (Lichtheimia corymbifera) is reported as 3.6 µg/mL (≈ 8.75 µM) and the MIC90 [2] is reported as 33 µg/mL (≈ 80.2 µM). It also gave an MIC (Rhizomucor pusillus [3]) of 0.4 µg/mL (≈ 0.972 µM), an MIC (Rhizomucor pusillus [4]) of 6.25 µg/mL (≈ 15.2 µM) and an MIC (Rhizomucor pusillus [5]) of 0.4 µg/mL (≈ 0.972 µM). The MIC [6] was 11 µg/mL (≈ 26.7 µM), the MIC (Mucor racemosus) was 25 µg/mL (≈ 60.8 µM) and the MIC (Mucor mucedo) was 6.25 µg/mL (≈ 15.2 µM). It also gave an MIC (Rhizopus arrhizus [7]) of 2 µg/mL, an MIC (Rhizopus arrhizus [8]) of 2 µg/mL (≈ 4.86 µM) and an MIC (Rhizomucor miehei [9]) of 3.12 µg/mL (≈ 7.59 µM). The MIC (Rhizopus arrhizus [10]) was 12.5 µg/mL (≈ 30.4 µM), the MIC (Rhizopus arrhizus [11]) was 2 µg/mL and the MIC (Mucor circinelloides [12]) was 4 µg/mL (≈ 9.72 µM). It also gave an MIC (Rhizopus arrhizus [13]) of 3.6 µg/mL (≈ 8.75 µM) and an MIC90 (Rhizomucor miehei [14]) of 3.6 µg/mL (≈ 8.75 µM).
For `OC(Cn1cncn1)(Cn1cncn1)c1ccc(F)cc1F` [FLUCONAZOLE], the “inhibition zone (IZ)” value [1] was 22 mm.
Work on `Nc1c(-c2cc(Cc3ccc(COc4ccccn4)cc3)no2)ccc[n+]1COP(=O)([O-])O` [FOSMANOGEPIX] yielded an MEC (Rhizopus arrhizus [15]) of 0.25 µg/mL.
`CO[C@H]1C[C@@H]2CC[C@@H](C)[C@@](O)(O2)C(=O)C(=O)N2CCCC[C@H]2C(=O)O[C@H]([C@H](C)C[C@@H]2CC[C@@H](O)[C@H](OC)C2)CC(=O)[C@H](C)/C=C(\C)[C@@H](O)[C@@H](OC)C(=O)[C@H](C)C[C@H](C)/C=C/C=C/C=C/1C` [SIROLIMUS] showed an inhibition at 100 µg/mL (Mucor circinelloides [16]) of at most 80%, an inhibition at 6.26 µg/mL (Phycomyces blakesleeanus) of at most 80% and an inhibition at 12.5 µg/mL (Rhizopus arrhizus [17]) of at most 80%.
With `CCOC(=O)N1C/C(=C\c2ccc(Cl)cc2)C(=O)[C@@]2(C1)[C@H](c1ccc(Cl)cc1)[C@H]1CCCN1[C@]21C(=O)Nc2ccccc21` the “inhibition zone (IZ)” value [1] was 39.46 mm.
In the case of `CCOC(=O)N1C/C(=C\c2cc(OC)c(OC)c(OC)c2)C(=O)[C@@]2(C1)[C@H](c1cc(OC)c(OC)c(OC)c1)[C@H]1CCCN1[C@]21C(=O)Nc2ccccc21`, the “inhibition zone (IZ)” value [1] is reported as 39.46 mm.
With `CCOC(=O)N1C/C(=C\c2ccc([N+](=O)[O-])cc2)C(=O)[C@@]2(C1)[C@H](c1ccc([N+](=O)[O-])cc1)CN(C)[C@]21C(=O)Nc2ccccc21` the “inhibition zone (IZ)” value [1] was 39.46 mm.
In the case of `CCOC(=O)N1C/C(=C\c2ccc(OC)cc2)C(=O)[C@@]2(C1)[C@H](c1ccc(OC)cc1)[C@H]1CCCN1[C@]21C(=O)Nc2ccccc21`, the IC50 [18] is reported as 11.3 µg/mL (≈ 18.6 µM) and the MIC ([18]; time 24-24 hrs) is reported as 0.98 µg/mL (≈ 1.61 µM).
For `CCOC(=O)N1C/C(=C\c2ccc(F)c(F)c2)C(=O)[C@@]2(C1)[C@H](c1ccc(F)c(F)c1)CN(C)[C@]21C(=O)Nc2ccccc21`, the “inhibition zone (IZ)” value [1] was 39.46 mm.
In the case of `Cc1cc(N2CCN(c3ccc(C(=O)N[C@H]4CCCC[C@@H]4O)cc3)CC2)ccc1OC[C@@H]1CO[C@@](Cn2cncn2)(c2ccc(F)cc2F)C1`, the MIC (Mucor circinelloides [19]) is reported as 2 µg/mL (≈ 2.91 µM) and the MIC (Rhizomucor pusillus [20]) is reported as 2 µg/mL (≈ 2.91 µM).
`CC(C)c1nc(N(C)S(C)(=O)=O)nc(-c2ccc(F)cc2)c1/C=C/[C@@H](O)C[C@@H](O)CC(=O)O` [ROSUVASTATIN] gave an MIC90 (Lichtheimia corymbifera) of 33 µg/mL (≈ 68.5 µM), an MIC90 (Rhizomucor pusillus [3]) of 11 µg/mL (≈ 22.8 µM) and an MIC [21] of 32 µg/mL (≈ 66.5 µM). The MIC (Rhizopus stolonifer) was 64 µg/mL (≈ 133 µM), the MIC (Mucor circinelloides [22]) was 32 µg/mL (≈ 66.5 µM) and the MIC (Mycotypha africana) was 8 µg/mL (≈ 16.6 µM). The MIC90 (Rhizopus arrhizus [13]) was 96 µg/mL (≈ 199 µM) and the MIC90 (Rhizomucor miehei [14]) was 11 µg/mL (≈ 22.8 µM).
For `Cc1ccc([C@H]2[C@@]3(SC(=O)NC3=O)C3CCCN3[C@@]23C(=O)Nc2ccccc23)cc1` (some centres undefined), the “inhibition zone (IZ)” value [1] was 19 mm.
In the case of `CC(C)c1c(C(=O)Nc2ccccc2)c(-c2ccccc2)c(-c2ccc(F)cc2)n1CC[C@@H](O)C[C@@H](O)CC(=O)O` [ATORVASTATIN], the MIC (Rhizopus arrhizus [23]) is reported as 64 µg/mL (≈ 115 µM), the MIC (Rhizopus arrhizus [24]) is reported as 64 µg/mL (≈ 115 µM) and the MIC [21] is reported as 32 µg/mL (≈ 57.3 µM). For the same compound, the MIC (Rhizopus arrhizus [7]) was 32 µg/mL, the MIC (Rhizopus arrhizus [8]) was 32 µg/mL (≈ 57.3 µM) and the MIC (Rhizopus arrhizus [25]) was 64 µg/mL (≈ 115 µM). The MIC (Rhizopus stolonifer) was 64 µg/mL (≈ 115 µM), the MIC (Mucor circinelloides [22]) was 16 µg/mL (≈ 28.6 µM) and the MIC (Mycotypha africana) was 8 µg/mL (≈ 14.3 µM).
